Tests used:
[1] = biological target: T1, Mitogen-activated protein kinase kinase kinase 5 (Homo sapiens) (UniProt Q99683); assay: Selectivity interaction (ProQinase) EUB0000171b MAP3K5
T1 sequence (whole entry): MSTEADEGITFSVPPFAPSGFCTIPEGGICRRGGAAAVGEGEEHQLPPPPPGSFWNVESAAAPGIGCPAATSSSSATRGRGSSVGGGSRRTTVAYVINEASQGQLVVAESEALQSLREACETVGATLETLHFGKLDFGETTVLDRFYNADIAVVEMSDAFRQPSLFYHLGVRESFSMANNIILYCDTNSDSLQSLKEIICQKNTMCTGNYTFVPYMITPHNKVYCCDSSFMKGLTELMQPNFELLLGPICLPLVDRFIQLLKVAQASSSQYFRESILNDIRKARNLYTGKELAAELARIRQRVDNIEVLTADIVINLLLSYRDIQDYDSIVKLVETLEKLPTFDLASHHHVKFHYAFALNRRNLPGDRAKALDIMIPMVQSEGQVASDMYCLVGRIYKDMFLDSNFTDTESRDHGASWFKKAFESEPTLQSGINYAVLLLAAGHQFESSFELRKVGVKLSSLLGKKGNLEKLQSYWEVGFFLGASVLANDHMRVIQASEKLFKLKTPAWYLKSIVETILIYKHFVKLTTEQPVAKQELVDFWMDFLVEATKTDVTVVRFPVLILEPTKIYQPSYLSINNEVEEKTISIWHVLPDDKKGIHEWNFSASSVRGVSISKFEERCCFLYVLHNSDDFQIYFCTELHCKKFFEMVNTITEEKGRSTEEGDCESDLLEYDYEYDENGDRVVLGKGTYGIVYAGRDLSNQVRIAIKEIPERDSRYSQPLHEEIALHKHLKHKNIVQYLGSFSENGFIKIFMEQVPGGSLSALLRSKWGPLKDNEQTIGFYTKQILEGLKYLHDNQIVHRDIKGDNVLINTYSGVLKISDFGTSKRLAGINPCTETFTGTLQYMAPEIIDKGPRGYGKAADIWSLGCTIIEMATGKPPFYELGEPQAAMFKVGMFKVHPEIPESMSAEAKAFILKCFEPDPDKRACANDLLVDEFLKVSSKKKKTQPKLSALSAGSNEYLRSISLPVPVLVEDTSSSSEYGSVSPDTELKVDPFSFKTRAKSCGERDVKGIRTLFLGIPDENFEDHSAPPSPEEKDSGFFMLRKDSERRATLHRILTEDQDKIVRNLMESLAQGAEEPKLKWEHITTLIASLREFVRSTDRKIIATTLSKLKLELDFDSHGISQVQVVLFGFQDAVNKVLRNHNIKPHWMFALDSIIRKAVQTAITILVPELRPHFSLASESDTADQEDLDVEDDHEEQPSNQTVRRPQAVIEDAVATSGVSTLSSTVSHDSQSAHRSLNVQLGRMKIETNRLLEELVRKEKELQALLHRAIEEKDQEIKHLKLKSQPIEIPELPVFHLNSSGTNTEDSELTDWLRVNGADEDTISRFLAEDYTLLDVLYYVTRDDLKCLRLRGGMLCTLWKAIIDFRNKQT

[2] = biological target: Fibroblast growth factor receptor 3 (Homo sapiens, UniProt P22607); assay: (§1) Selectivity interaction (KinomeScan (DiscoverX)) EUB0001079a FGFR3; conditions: at 1 µM
[3] = system: Fibroblast growth factor receptor 3 (Homo sapiens), P22607 [G697C]; assay: as §1; conditions: at 1 µM
[4] = biological target: Serine/threonine-protein kinase Nek7 (Homo sapiens) (UniProt Q8TDX7); assay: Selectivity interaction (KinomeScan (DiscoverX)) EUB0001049a NEK7; conditions: at 1 µM
[5] = biological target: T2, Histone-lysine N-methyltransferase NSD3 (Homo sapiens) (UniProt Q9BZ95); conditions: at 1 µM
T2 sequence (whole entry): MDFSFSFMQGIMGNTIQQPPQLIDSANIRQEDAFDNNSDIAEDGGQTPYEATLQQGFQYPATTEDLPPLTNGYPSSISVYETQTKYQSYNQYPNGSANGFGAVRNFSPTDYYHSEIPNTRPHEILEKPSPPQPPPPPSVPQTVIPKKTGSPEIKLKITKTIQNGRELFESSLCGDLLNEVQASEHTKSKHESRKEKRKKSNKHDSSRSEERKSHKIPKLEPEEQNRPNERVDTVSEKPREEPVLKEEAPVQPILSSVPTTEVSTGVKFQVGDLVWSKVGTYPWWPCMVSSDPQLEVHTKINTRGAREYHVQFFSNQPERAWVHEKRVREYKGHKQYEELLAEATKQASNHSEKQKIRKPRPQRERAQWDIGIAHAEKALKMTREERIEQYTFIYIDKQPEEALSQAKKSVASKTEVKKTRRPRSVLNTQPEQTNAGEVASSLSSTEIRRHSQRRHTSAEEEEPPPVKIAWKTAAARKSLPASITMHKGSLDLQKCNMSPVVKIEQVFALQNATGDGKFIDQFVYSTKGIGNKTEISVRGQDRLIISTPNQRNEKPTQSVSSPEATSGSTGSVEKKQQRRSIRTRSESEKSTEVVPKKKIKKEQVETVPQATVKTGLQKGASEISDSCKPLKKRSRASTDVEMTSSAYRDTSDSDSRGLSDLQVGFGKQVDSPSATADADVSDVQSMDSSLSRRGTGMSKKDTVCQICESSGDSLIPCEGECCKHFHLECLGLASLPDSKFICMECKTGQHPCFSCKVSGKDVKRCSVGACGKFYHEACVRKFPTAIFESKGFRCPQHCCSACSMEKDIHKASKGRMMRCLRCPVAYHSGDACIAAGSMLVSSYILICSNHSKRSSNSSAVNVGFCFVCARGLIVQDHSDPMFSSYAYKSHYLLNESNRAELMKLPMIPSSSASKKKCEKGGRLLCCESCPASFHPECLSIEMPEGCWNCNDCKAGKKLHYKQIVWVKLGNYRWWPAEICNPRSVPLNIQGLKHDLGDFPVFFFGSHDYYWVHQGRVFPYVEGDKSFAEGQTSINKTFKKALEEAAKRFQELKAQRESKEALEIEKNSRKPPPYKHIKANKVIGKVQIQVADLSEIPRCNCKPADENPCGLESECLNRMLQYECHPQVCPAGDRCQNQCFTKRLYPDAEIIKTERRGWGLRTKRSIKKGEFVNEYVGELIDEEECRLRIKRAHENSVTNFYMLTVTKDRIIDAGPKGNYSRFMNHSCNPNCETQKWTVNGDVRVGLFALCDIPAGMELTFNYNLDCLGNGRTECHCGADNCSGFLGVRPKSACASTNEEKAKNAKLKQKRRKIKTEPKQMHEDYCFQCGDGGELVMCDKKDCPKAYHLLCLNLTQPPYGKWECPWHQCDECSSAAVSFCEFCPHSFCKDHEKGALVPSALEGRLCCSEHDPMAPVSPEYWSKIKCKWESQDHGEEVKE

Chain of Fibroblast growth factor receptor 3 (Homo sapiens), P22607 [G697C] (P22607 whole entry G697C): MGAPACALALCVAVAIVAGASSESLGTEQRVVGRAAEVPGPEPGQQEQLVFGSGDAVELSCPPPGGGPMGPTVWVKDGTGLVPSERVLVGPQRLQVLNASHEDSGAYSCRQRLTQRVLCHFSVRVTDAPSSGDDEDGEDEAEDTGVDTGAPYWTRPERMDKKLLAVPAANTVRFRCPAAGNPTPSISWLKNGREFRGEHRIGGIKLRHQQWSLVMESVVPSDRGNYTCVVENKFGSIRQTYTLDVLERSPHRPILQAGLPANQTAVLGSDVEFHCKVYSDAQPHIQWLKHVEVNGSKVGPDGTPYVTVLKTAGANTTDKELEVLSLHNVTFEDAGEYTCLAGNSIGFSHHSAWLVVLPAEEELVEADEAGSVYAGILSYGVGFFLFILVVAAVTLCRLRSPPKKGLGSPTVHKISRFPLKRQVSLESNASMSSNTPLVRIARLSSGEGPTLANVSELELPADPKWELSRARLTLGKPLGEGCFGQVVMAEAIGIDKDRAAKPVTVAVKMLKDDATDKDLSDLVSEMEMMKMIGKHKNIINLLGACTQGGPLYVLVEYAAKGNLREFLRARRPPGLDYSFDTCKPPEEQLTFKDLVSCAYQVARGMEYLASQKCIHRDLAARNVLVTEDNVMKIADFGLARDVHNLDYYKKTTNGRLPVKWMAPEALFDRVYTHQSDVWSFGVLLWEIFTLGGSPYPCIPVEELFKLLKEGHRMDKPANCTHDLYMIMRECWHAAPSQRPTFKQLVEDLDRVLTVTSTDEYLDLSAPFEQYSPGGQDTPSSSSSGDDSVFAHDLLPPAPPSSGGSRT
Chain of Serine/threonine-protein kinase Nek7 (Homo sapiens) (Q8TDX7 whole entry, looked up): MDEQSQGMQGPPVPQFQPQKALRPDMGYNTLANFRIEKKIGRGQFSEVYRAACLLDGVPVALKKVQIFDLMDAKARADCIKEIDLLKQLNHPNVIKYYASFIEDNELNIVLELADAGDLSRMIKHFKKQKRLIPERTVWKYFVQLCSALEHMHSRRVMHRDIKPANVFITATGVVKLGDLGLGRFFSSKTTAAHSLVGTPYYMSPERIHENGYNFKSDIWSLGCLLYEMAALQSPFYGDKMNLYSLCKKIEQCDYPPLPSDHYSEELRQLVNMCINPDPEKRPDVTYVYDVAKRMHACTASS
Chain of Fibroblast growth factor receptor 3 (P22607 23-806 limits assumed): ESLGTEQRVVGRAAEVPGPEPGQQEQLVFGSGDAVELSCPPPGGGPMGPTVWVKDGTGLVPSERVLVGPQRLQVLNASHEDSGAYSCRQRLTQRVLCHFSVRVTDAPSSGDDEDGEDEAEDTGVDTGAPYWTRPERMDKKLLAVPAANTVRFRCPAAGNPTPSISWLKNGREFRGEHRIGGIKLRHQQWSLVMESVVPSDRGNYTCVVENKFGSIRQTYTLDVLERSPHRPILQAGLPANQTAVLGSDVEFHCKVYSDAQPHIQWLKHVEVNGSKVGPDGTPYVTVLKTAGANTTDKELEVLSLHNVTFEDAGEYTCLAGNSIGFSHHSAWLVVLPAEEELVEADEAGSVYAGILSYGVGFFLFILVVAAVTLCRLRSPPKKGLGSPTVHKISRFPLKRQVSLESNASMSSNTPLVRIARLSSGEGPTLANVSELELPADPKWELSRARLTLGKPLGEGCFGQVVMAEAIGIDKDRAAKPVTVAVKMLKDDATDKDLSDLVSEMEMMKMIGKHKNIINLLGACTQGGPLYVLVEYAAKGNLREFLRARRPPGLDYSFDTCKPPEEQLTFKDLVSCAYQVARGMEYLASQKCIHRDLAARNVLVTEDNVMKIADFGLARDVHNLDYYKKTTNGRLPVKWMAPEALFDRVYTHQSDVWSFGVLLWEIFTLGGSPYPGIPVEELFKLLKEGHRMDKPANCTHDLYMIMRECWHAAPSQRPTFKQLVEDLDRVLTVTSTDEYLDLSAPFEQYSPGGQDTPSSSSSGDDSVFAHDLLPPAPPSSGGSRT

C=CC(=O)Nc1cccc(C(=O)Nc2ccc(Nc3cc(-c4[nH]c(SC)nc4C)ccn3)cc2)c1
% of control ([1]; at 1 µM): 92% | % of control ([1]; at 5 µM): 95%

Nc1cnc(N2CCc3cc(S(=O)(=O)Nc4c(F)cc(Cl)cc4F)cc(N4CCCC4=O)c32)nc1 [TP-020n]
% of control [2]: 100% | % of control [3]: 89%

COc1cc(Nc2nc(C)cc(-c3cnn4nc(OC)ccc34)n2)cc(C(F)(F)F)c1
% of control [4]: 83%

CNCCN1CCC(c2cc(CN(C)C(=O)c3cccc(Oc4ccccc4)c3)ccn2)CC1
% activity [5]: > 90%
